Values quoted from earlier work as cited in patent US20020155976A1, “Cleaning compositions” (Unilever Home & Personal Care USA, Division of Conopco, Inc., priority 2000, published 2002).
Where two headings read alike, the source gives them in different places.

[1] = at 20° C., other common materials, by contrast

| Water Solubility (grams of solid to form a saturated solution in 100 grams of water at 20° C., highly water-soluble materials) [g/100 g] | Structure (SMILES) | Water Solubility [1] [g/100 g] |
| --- | --- | --- |
|  | O=BO[O-].[Na+] [Sodium perborate anhydrous] | 3.7 |
|  | O=P(O)(O)OP(=O)(O)OP(=O)(O)O [Sodium tripolyphosphate anhydrous] | 15 |
| >100 | NC(N)=O [Urea] |  |
